In patent US11827628B2, “Compositions and methods for inhibition of the JAK pathway” (Rigel Pharmaceuticals, Inc., priority 2005, dated 2023):
pIC50: −log10 of the molar value. Structures can show the parent of a compound that is named as a salt. Where two headings read alike, the source gives them in different places.

Legend:
Primary human T-cells = assay: Primary Human T-Cell Proliferation Assay Stimulated with IL-2 (CellTiter-Glo); type: cell-based; conditions: read-out: IC50, Example 42
How it was run: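 IC50 derived from CellTiter-Glo ATP signal after 72 hours of IL-2-driven proliferation at 37° C. Cells: primary human T-cells from blood, stimulated beforehand 3-4 days on anti-CD3/anti-CD28 with IL-2, then rested from IL-2 before compound exposure in duplicate; IL-2-free wells served as unstimulated control.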

[1] = tested on: up-regulation of ICAM-1 (CD54) by IFNγ in A549 lung epithelial cells; assay: A549 Epithelial Line Stimulated with IFNγ (ICAM-1 surface expression, FACS); type: cell-based, human; conditions: ICAM-1 expression by FACS, read-out: IC50, Example 43
How it was run: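 ICAM-1 (CD54) flow cytometry on live-gated A549 cells, geometric mean versus dose giving EC50. Cells received IFNγ at 75 ng/mL for 24 h after a 1 h compound pre-treatment spanning 30 μM to 14 nM in medium with 5% FBS and 0.3% DMSO.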

[2] = Homo sapiens, T-cell, primary human T-cell proliferation stimulated with IL-2
[3] = Homo sapiens, A549, A549 epithelial line stimulated with IFNγ
[4] = primary human T-cells stimulated with IL-2, proliferation
[5] = A549 cells stimulated with IFNγ

| Molecule | pIC50 (Primary human T-cells; [2]) | pIC50 [1, 3] | also measured |
| --- | --- | --- | --- |
| NS(=O)(=O)c1ccc(Nc2ncc(F)c(Nc3ccc(Cc4ccncc4)cc3)n2)cc1 [III-71, N2-(4-Aminosulfonylphenyl)-5-fluoro-N4-[4-(4-pyridinylmethyl)phenyl]-2,4-pyrimidinediamine] | 6.43 | 5.08 | – |
| Cc1cc(COc2ccc(Nc3nc(Nc4cccc(S(N)(=O)=O)c4)ncc3F)cc2)no1 [Compound I-230, N2-(3-Aminosulfonylphenyl)-5-fluoro-N4-[4-(5-methylisoxazol-3-yl)methyleneoxyphenyl]-2,4-pyrimidinediamine] | 7.16 | 4.98 | – |
| NC(=O)COc1ccc(Nc2nc(Nc3ccc(S(N)(=O)=O)cc3)ncc2F)cc1Cl [Compound I-97, N4-(4-Aminocarbonylmethoxy-3-chlorophenyl)-N2-(4-aminosulfonylphenyl)-5-fluoro-2,4-pyrimidinediamine] | 6.06 | 4.51 | – |
| CN(C)C(=O)OCCc1ccc(Nc2nc(Nc3cccc(S(N)(=O)=O)c3)ncc2F)cc1 [III-57, N2-(3-Aminosulfonylphenyl)-N4-{4-[2-(dimethylaminocarbonyloxy)ethyl]phenyl}-5-fluoro-2,4-pyrimidinediamine] | 6.77 | 4.26 | – |
| COc1cc(Nc2nc(Nc3ccc(S(N)(=O)=O)cc3)ncc2F)ccc1OCC#N [Compound I-45, N2-(4-Aminosulfonylphenyl)-N4-(4-cyanomethoxy-3-methoxyphenyl)-5-fluoro-2,4-pyrimidinediamine] | 6.08 | 4.77 | – |
| COc1cc(Nc2nc(Nc3ccc(S(N)(=O)=O)cc3)ncc2F)cc(OCC#N)c1OC [Compound I-1, N2-(4-Aminosulphonylphenyl)-N4-(3-cyanomethoxy-4,5-dimethoxyphenyl)-5-fluoro-2,4-pyrimidinediamine] | 5.00 | 4.73 | – |
| COc1ccc(Nc2ncc(F)c(Nc3ccc(OCC#N)cc3)n2)cc1S(N)(=O)=O [Compound I-56, N2-(3-Aminosulfonyl-4-methoxyphenyl)-N4-(4-cyanomethoxyphenyl)-5-fluoro-2,4-pyrimidinediamine] | 6.58 | 5.30 | – |
| Cc1cc(Nc2nc(Nc3ccc(C)c(S(N)(=O)=O)c3)ncc2F)ccc1CCC#N [III-19, N2-(3-Aminosulfonyl-4-methylphenyl)-N4-[4-(2-cyanoethyl)-3-methylphenyl]-5-fluoro-2,4-pyrimidinediamine] | 6.76 | 4.66 | – |
| Cc1ccc(Nc2ncc(F)c(Nc3ccc(OCC(N)=O)c(F)c3)n2)cc1S(N)(=O)=O [Compound I-102, N4-(4-Aminocarbonylmethoxy-3-fluorophenyl)-N2-(3-aminosulfonyl-4-methylphenyl)-5-fluoro-2,4-pyrimidinediamine] | 6.68 | 4.36 | – |
| NS(=O)(=O)c1cccc(Nc2ncc(F)c(Nc3ccc(Cc4ccncc4)cc3)n2)c1 [III-129, N2-(3-Aminosulfonylphenyl)-5-fluoro-N4-[4-(4-pyridylmethyl)phenyl]-2,4-pyrimidinediamine Methanesulfonic Acid Salt] | – | – | pIC50 (Primary human T-cells; [4]): 6.74; pIC50 [1, 5]: 4.50 |
| Cc1cc(Nc2nc(Nc3ccc(S(N)(=O)=O)cc3)ncc2F)cc(C)c1N1CCN(C)CC1 [IX-44, N2-(4-Aminosulfonylphenyl)-N4-[3,5-dimethyl-4-(4-methylpiperazin-1-yl]phenyl)-5-fluoro-2,4-pyrimidinediamine] | – | – | pIC50 (Primary human T-cells; Homo sapiens, T-cell, primary human T-cells stimulated with IL-2, proliferation): 6.10; pIC50 ([1]; Homo sapiens, A549, A549 cells stimulated with IFNγ): 5.09 |
| N4-(3,4-Dichlorophenyl)-5-fluoro-N2-[3-(4-methylpipendin-1-yl)aminosulfonylphenyl]-2,4-pyrimidinediamine [VI-10] | – | – | pIC50 (Primary human T-cells; [4]): 5.62; pIC50 [1, 5]: 4.60 |
| Cc1cnc(Nc2ccc(Cl)c(S(N)(=O)=O)c2)nc1Nc1ccc(OCC(=O)N(C)C)c(Cl)c1 [Compound I-141, N2-(3-Aminosulfonyl-4-chlorophenyl)-N4-(3-chloro-4-dimethylaminocarbonylmethoxyphenyl)-5-methyl-2,4-pyrimidinediamine] | 6.17 | 4.81 | – |
| Cc1cnc(Nc2cccc(S(N)(=O)=O)c2)nc1Nc1ccc(OCC(=O)N(C)C)c(Cl)c1 [Compound I-135, N2-(3-Aminosulfonylphenyl)-N4-(3-chloro-4-dimethylaminocarbonylmethoxyphenyl)-5-methyl-2,4-pyrimidinediamine] | 6.98 | 5.49 | – |
